# According to US20140235542A1, “MODULAR, BIOACTIVE PEPTIDES FOR BINDING NATIVE BONE AND IMPROVING BONE GRAFT OSTEOINDUCTIVITY” (WISCONSIN ALUMNI RESEARCH FOUNDATION, priority 2013, published 2014):
# Square brackets hold non-standard residues; d marks the D form. Ends that are not written are not given here. Gla = N[C@@H](CC(C(=O)O)C(=O)O)C(=O)O
# Tests used:
# [1] = Binding of 5(6)-FAM-conjugated modular peptides to HA-coated PLG films; details: 4 hr, 37° C.
# Protocol: Poly (lactide-coglycolide) (PLG) films were prepared via a solvent casting process in which PLG (85:15) pellets were dissolved in chloroform (50 mg/ml), added to a PTFE dish, and dried for 2 days. The films were further dried at 50-55° C. for 4 hr to remove residual solvent and samples were cooled to room temperature. Square films (1 cm^2) were manually cut out of the resulting PLG film sheets. A “bone-like” HA-based material layer was grown on the PLG films using a direct deposition technique by biomimetic mineralization in modified simulated body fluid (mSBF).
# To measure the binding efficiency of modular peptides to the HA-coated PLG films and to gain preliminary insight into the properties that influence modular peptide immobilization, 1 cm^2 HA-coated PLG films was first exposed to PBS solutions containing 500 μg (1 mg/ml) of 5(6) FAM-conjugated eBMP-2, eBGu1, eBGu3, eBGa1, or eBGa3 modular peptide solution (See Table 1 for definitions of these abbreviations). The films were incubated in peptide solutions with constant agitation for 4 hr at 37° C., and the amount of free peptide remaining was determined by measuring the fluorescence emission of the solution (excitation: 494 nm; emission 519 nm) using a Synergy HT Multi-Detection Microplate Reader (BioTek, Winooski, Vt.), and comparing this emission to standard samples with known concentrations of 5(6)-FAM. To further characterize surface immobilization of the peptide with the highest binding efficiency—the eBGa3 peptide-1 cm^2 HA-coated films were incubated in various concentrations (50-750 nM) of 5(6)-FAM-conjugated eBGa3 peptide for 4 hr with constant agitation at 37° C. The amount of peptide bound to HA-coated film was again determined by fluorescence analysis, as described above.
# [2] = Binding of rhodamine-labeled peptide to living trabecular bone cores in a bone bioreactor; set-up: species or system bovine; details: 100 μg/mL in DMEM circulated, 2-10 hours
# Protocol: The native bone used were harvested from sheep tibia and bovine sternum. Cortical (compact) bone slices were collected from sheep tibia with periosteum removed, and trabecular (cancellous, spongy) bone cores were drilled out from bovine sternum under sterile conditions.
# The peptide binding to native bones was tested in three different experiments. In the first experiment, the cortical bone slices were incubated in modular peptide solution (0.5 mL, PBS) with concentrations of 50, 100, 200 and 300 μg/mL. The incubation was continued in a static condition for a period of 0.5, 1, 2 and 3 hours. […] Following each experiment, the bones were rinsed with PBS to remove unbound peptide and their fluorescence images were captured using a Typhoon fluorescence scanner (GE healthcare) or a Nikon Eclipse Ti inverted microscope. To quantify the fluorescence intensity, the images were converted into 8-bit using ImageJ to present the intensity level of each pixel in the range of 0 to 255. […]
# mBMP binding to living trabecular bone cores (1 cm in diameter and 0.5 cm in thickness) harvested from bovine sternum was assessed. […] After incubating for various time periods, the binding was measured in terms of fluorescence intensity from rhodamine labeled mBMP. […]
# [3] = Release kinetics of modular peptides from HA-coated film; details: after 70 days
# Protocol: To quantify release kinetics of 5(6) FAM-conjugated modular peptides from HA-coated film, the films were first incubated in solutions containing 250 μM (˜500 μg) of each peptide (eBGu1, eBGu3, eBGa1, or eBGa3) to allow for binding (as described above), then incubated in 500 μl of PBS buffer at 37° C. with constant agitation for 5 days (eBGu1 and eBGu3 peptides) or 10 weeks (eBGa1 and eBGa3 peptides), respectively. Whole buffer solutions were changed at indicated time points and the amount of peptide released from the HA-coated film was determined via fluorescence analysis and comparison with standards containing known amounts of 5(6)-FAM. The fluorescent images of fluorescently-labeled peptides bound to HA-coated films were obtained using an Olympus IX51 fluorescence microscope (Olympus, Center Valley, Pa.).
substance,measurement,setting,value
KIPKASSVPTELSAISTLYLAAAAγEPRRγEVAγEL (KIPKASSVPTELSAISTLYLAAAA[Gla]PRR[Gla]VA[Gla]L-NH2; N-terminus assumed; SMILES CC[C@H](C)[C@H](NC(=O)[C@H](C)NC(=O)[C@H](CO)NC(=O)[C@H](CC(C)C)NC(=O)[C@H](CCC(=O)O)NC(=O)[C@@H](NC(=O)[C@@H]1CCCN1C(=O)[C@@H](NC(=O)[C@H](CO)NC(=O)[C@H](CO)NC(=O)[C@H](C)NC(=O)[C@H](CCCCN)NC(=O)[C@@H]1CCCN1C(=O)[C@@H](NC(=O)[C@@H](N)CCCCN)[C@@H](C)CC)C(C)C)[C@@H](C)O)C(=O)N[C@@H](CO)C(=O)N[C@H](C(=O)N[C@@H](CC(C)C)C(=O)N[C@@H](Cc1ccc(O)cc1)C(=O)N[C@@H](CC(C)C)C(=O)N[C@@H](C)C(=O)N[C@@H](C)C(=O)N[C@@H](C)C(=O)N[C@@H](C)C(=O)N[C@@H](CC(C(=O)O)C(=O)O)C(=O)N1CCC[C@H]1C(=O)N[C@@H](CCCNC(=N)N)C(=O)N[C@@H](CCCNC(=N)N)C(=O)N[C@@H](CC(C(=O)O)C(=O)O)C(=O)N[C@H](C(=O)N[C@@H](C)C(=O)N[C@@H](CC(C(=O)O)C(=O)O)C(=O)N[C@@H](CC(C)C)C(N)=O)C(C)C)[C@@H](C)O) [eBGa3],binding efficiency on the HA-coated PLG films,"[1]; 500 μg (1 mg/ml) 5(6)-FAM-conjugated peptide in PBS, constant agitation",55.9±2.2%
same,peptide amount at which bound amount reached saturation,[1]; HA-coated film,~300 µg
same,peptide concentration at which bound amount reached saturation,[1]; HA-coated film,approximately 150 μM
same,incubation time at which binding reached a plateau,[2],4 h
same,initially bound peptide remaining bound,[3],~85%
same,peptide released from HA-coated films,"[3]; PBS, 37° C.",15.7±0.6%
